For 16 compounds, change in vivo and melting point results are on record in patent US7786108B2, “Compounds and method for treating dyslipidemia” (Eli Lilly and Company, priority 2004, dated 2010).

The first data set relates to transgenic mice that express both human CETP and human apolipoprotein A-1. As to the kind of experiment: In vivo assay of plasma lipids: elevation of HDL cholesterol. To be noted: Mus musculus; single oral dose 30 mg/kg; HDL cholesterol in serum at 8 hr after administration; relative to a control; read-out: % HDL cholesterol increase. From the text: Additional serum lipids can be analyzed by enzymatic methods.
For `Cc1cc2c(cc1C(F)(F)F)N(CC1CCC(CC(=O)O)CC1)CCCC2N(Cc1cc(C(F)(F)F)cc(C(F)(F)F)c1)c1nnn(C)n1` (centres unmarked) [Example 31, (4-{5-[(3,5-Bis-trifluoromethyl-benzyl)-(2-methyl-2H-tetrazol-5-yl)-amino]-7-methyl-8-trifluoromethyl-2,3,4,5-tetrahydro-benzo[b]azepin-1-ylmethyl}-cyclohexyl)-acetic acid], the change in vivo at 30 mg/kg was 114%.
With `Cc1cc2c(cc1C(F)(F)F)N(Cc1ccncc1)CCC[C@@H]2N(Cc1cc(Cl)cc(C(F)(F)F)c1)c1nnn(C)n1` [Example 191, (S)-(3-Chloro-5-trifluoromethyl-benzyl)-(7-methyl-1-pyridin-4-ylmethyl-8-trifluoromethyl-2,3,4,5-tetrahydro-1H-benzo[b]azepin-5-yl)-(2-methyl-2H-tetrazol-5-yl)-amine], the change in vivo at 30 mg/kg was determined as 91%.
Still for that read-out and setting: in the case of `Cc1cc2c(c(C)c1C(F)(F)F)N(CC1CC1)CCC[C@@H]2N(Cc1cc(Cl)cc(C(F)(F)F)c1)c1nnn(C)n1` [Example 200, (S)-(3-Chloro-5-trifluoromethyl-benzyl)-(1-cyclopropylmethyl-7,9-dimethyl-8-trifluoromethyl-2,3,4,5-tetrahydro-1H-benzo[b]azepin-5-yl)-(2-methyl-2H-tetrazol-5-yl)-amine] it was 153%; in that of `CCN1CCC[C@H](N(Cc2cc(C(F)(F)F)cc(C(F)(F)F)c2)c2nnn(C)n2)c2cc(C)c(C(F)(F)F)cc21` [Example 30, (S)-(3,5-Bis-trifluoromethyl-benzyl)-(1-ethyl-7-methyl-8-trifluoromethyl-2,3,4,5-tetrahydro-1H-benzo[b]azepin-5-yl)-(2-methyl-2H-tetrazol-5-yl)-amine], 54%.
The same measure, in the same setting: as for `Cc1cc2c(cc1C(F)(F)F)N(Cc1ccc(O)c(C(=O)O)c1)CCC[C@@H]2N(Cc1cc(C(F)(F)F)cc(C(F)(F)F)c1)c1nnn(C)n1` [Example 141, (S)-5-{5-[(3,5-Bis-trifluoromethyl-benzyl)-(2-methyl-2H-tetrazol-5-yl)-amino]-7-methyl-8-trifluoromethyl-2,3,4,5-tetrahydro-benzo[b]azepin-1-ylmethyl}-2-hydroxy-benzoic acid], the figure is 74%; as for `Cc1cc2c(c(C)c1C(F)(F)F)N(C[C@H]1CC[C@H](CC(=O)O)CC1)CCC[C@@H]2N(Cc1cc(Cl)cc(C(F)(F)F)c1)c1nnn(C)n1` [Example 201, (S)-(4-{5-[(3-Chloro-5-trifluoromethyl-benzyl)-(2-methyl-2H-tetrazol-5-yl)-amino]-7,9-dimethyl-8-trifluoromethyl-2,3,4,5-tetrahydro-benzo[b]azepin-1-ylmethyl}-cyclohexyl)-acetic acid], 147%; as for `Cc1c2c(cc3c1N(CC1CCCC1)CCC[C@@H]3N(Cc1cc(C(F)(F)F)cc(C(F)(F)F)c1)c1nnn(C)n1)COC2` [Example 170, (S)-(3,5-Bis-trifluoromethyl-benzyl)-(5-cyclopentylmethyl-4-methyl-3,5,6,7,8,9-hexahydro-1H-2-oxa-5-aza-cyclohepta[f]inden-9-yl)-(2-methyl-2H-tetrazol-5-yl)-amine], 95%.
Same read-out and setting: in the case of `Cn1nnc(N(Cc2cc(C(F)(F)F)cc(C(F)(F)F)c2)[C@H]2CCCN(CC3CCCC3)c3cc4c(cc32)COC4)n1` [Example 73, (S)-(3,5-Bis-trifluoromethyl-benzyl)-(5-cyclopentylmethyl-3,5,6,7,8,9-hexahydro-1H-2-oxa-5-aza-cyclohepta[f]inden-9-yl)-(2-methyl-2H-tetrazol-5-yl)-amine] it was 374%; in that of `Cc1cc(N(Cc2cc(C(F)(F)F)cc(C(F)(F)F)c2)[C@H]2CCCN(C[C@H]3CC[C@H](CC(=O)O)CC3)c3cc(C(F)(F)F)c(C)cc32)on1` [Example 94, (4-{5-[(3,5-Bis-trifluoromethyl-benzyl)-(3-methyl-isoxazol-5-yl)-amino]-7-methyl-8-trifluoromethyl-2,3,4,5-tetrahydro-benzo[b]azepin-1-ylmethyl}-cyclohexyl)-acetic acid], 154%.
Turning to `Cc1cc2c(cc1C(F)(F)F)N(C1CCC(C(=O)O)CC1)CCC[C@@H]2N(Cc1cc(C(F)(F)F)cc(C(F)(F)F)c1)c1nnn(C)n1` (stereo partly drawn) [Example 175, (S)-4-{5-[(3,5-Bis-trifluoromethyl-benzyl)-(2-methyl-2H-tetrazol-5-yl)-amino]-7-methyl-8-trifluoromethyl-2,3,4,5-tetrahydro-benzo[b]azepin-1-yl}-cyclohexanecarboxylic acid], the change in vivo at 30 mg/kg was 100%.
As to `Cc1cc2c(cc1C(F)(F)F)N(Cc1ccc(C(=O)O)cc1)CCC[C@@H]2N(Cc1cc(C(F)(F)F)cc(C(F)(F)F)c1)c1nnn(C)n1` [Example 89, (S)-4-{5-[(3,5-Bis-trifluoromethyl-benzyl)-(2-methyl-2H-tetrazol-5-yl)-amino]-7-methyl-8-trifluoromethyl-2,3,4,5-tetrahydro-benzo[b]azepin-1-ylmethyl}-benzoic acid], the change in vivo at 30 mg/kg is 186%.
With `Cc1cc2c(cc1C(F)(F)F)N(CCC(C)(C)CC(=O)O)CCC[C@@H]2N(Cc1cc(C(F)(F)F)cc(C(F)(F)F)c1)c1nnn(C)n1` [Example 32, (S)-5-{5-[(3,5-Bis-trifluoromethyl-benzyl)-(2-methyl-2H-tetrazol-5-yl)-amino]-7-methyl-8-trifluoromethyl-2,3,4,5-tetrahydro-benzo[b]azepin-1-yl}-3,3-dimethyl-pentanoic acid], the change in vivo at 30 mg/kg stood at 128%.

System in a further data set: not given
Test: not given
Conditions: not given
Usually melting point stands for the temperature, or range, at which the solid turns liquid. With `COC(=O)c1cccc(CN2CCC[C@H](N(Cc3cc(C(F)(F)F)cc(C(F)(F)F)c3)c3nnn(C)n3)c3cc(C)c(C(F)(F)F)cc32)c1` [Example 90, (S)-3-{5-[(3,5-Bis-trifluoromethyl-benzyl)-(2-methyl-2H-tetrazol-5-yl)-amino]-7-methyl-8-trifluoromethyl-2,3,4,5-tetrahydro-benzo[b]azepin-1-ylmethyl}-benzoic acid methyl ester], the melting point is 62 to 65 °C (dec.).
Same read-out and setting: in the case of `COC(=O)c1ccc(CN2CCC[C@H](N(Cc3cc(C(F)(F)F)cc(C(F)(F)F)c3)c3nnn(C)n3)c3cc(C)c(C(F)(F)F)cc32)cc1` [Example 88, (S)-4-{5-[(3,5-Bis-trifluoromethyl-benzyl)-(2-methyl-2H-tetrazol-5-yl)-amino]-7-methyl-8-trifluoromethyl-2,3,4,5-tetrahydro-benzo[b]azepin-1-ylmethyl}-benzoic acid methyl ester] it was 71 to 74 °C (dec.); in that of `Cc1cc2c(cc1C(F)(F)F)N(c1ccc(C(=O)O)cc1)CCC[C@@H]2N(Cc1cc(C(F)(F)F)cc(C(F)(F)F)c1)c1nnn(C)n1` [Example 92, (S)-4-{5-[(3,5-Bis-trifluoromethyl-benzyl)-(2-methyl-2H-tetrazol-5-yl)-amino]-7-methyl-8-trifluoromethyl-2,3,4,5-tetrahydro-benzo[b]azepin-1-yl}-benzoic acid], 101 to 105 °C.
`Cc1cc2c(cc1C(F)(F)F)N(Cc1cccc(C(=O)O)c1)CCC[C@@H]2N(Cc1cc(C(F)(F)F)cc(C(F)(F)F)c1)c1nnn(C)n1` [Example 91, (S)-3-{5-[(3,5-Bis-trifluoromethyl-benzyl)-(2-methyl-2H-tetrazol-5-yl)-amino]-7-methyl-8-trifluoromethyl-2,3,4,5-tetrahydro-benzo[b]azepin-1-ylmethyl}-benzoic acid] yielded a melting point of 83 to 86 °C.
Still for that read-out and setting: in the case of `Cc1cc2c(cc1C(F)(F)F)N(Cc1ccc(C(=O)O)cc1)CCC[C@@H]2N(Cc1cc(C(F)(F)F)cc(C(F)(F)F)c1)c1nnn(C)n1` [Example 89, (S)-4-{5-[(3,5-Bis-trifluoromethyl-benzyl)-(2-methyl-2H-tetrazol-5-yl)-amino]-7-methyl-8-trifluoromethyl-2,3,4,5-tetrahydro-benzo[b]azepin-1-ylmethyl}-benzoic acid] it was 95 to 98 °C.
